Several values for one entry are separate records, joined by “and”; a condition that tells them apart may be missing. Identical values can stand only once. Entries after “also recorded” stand apart in the source; their conditions may differ.
Experiments:
TLR7 [1] = assay: IL-12 and IL-6 induction in BMDM from wild type and TLR7 deficient mice; format: cell-based, mouse; conditions: BMDM from TLR7 deficient (TLR7-KO) mice
C57BL/6 mice = assay: In vivo kinetics of serum pro-inflammatory cytokine induction after intravenous injection; parameters: species or system mouse; conditions: i.v., 200 nmol per animal
Procedure: The mice were intravenously injected with TLR7 agonists and their conjugates (40 nmol compound (4a) or 200 nmol SM and compounds (6), (8), or (9) per mouse). Blood samples were collected 2, 4, 6, 24 or 48 hours after injections. Sera were separated and kept at −20° C. until use. The levels of cytokines (e.g. IL-6 and TNF-α in the sera were measured by Luminex bead microassay, and the results presented in FIGS. 4A-B. Data are mean±SEM of five mice and are representative of two independent experiments. The minimum detection levels of IL-6 and TNF-α are 5 pg/mL and 10 pg/mL, respectively.
Cytokine induction by compounds (4a), (6), and (9), were sustained for up to 6 hours.

mice = conditions: cited from earlier work
Solubility = format: physicochemical; conditions: aqueous solution / suitable solvents for testing
TLR7 [2] = molecular target: T1, TLR7 (Homo sapiens, UniProt Q9NYK1); assay: Cytokine induction (IL-6, IFNalpha1; Luminex) in human PBMC; format: cell-based; conditions: 18 hours, IL-6 (FIG. 3A)
T1 sequence (Q9NYK1 27-1049): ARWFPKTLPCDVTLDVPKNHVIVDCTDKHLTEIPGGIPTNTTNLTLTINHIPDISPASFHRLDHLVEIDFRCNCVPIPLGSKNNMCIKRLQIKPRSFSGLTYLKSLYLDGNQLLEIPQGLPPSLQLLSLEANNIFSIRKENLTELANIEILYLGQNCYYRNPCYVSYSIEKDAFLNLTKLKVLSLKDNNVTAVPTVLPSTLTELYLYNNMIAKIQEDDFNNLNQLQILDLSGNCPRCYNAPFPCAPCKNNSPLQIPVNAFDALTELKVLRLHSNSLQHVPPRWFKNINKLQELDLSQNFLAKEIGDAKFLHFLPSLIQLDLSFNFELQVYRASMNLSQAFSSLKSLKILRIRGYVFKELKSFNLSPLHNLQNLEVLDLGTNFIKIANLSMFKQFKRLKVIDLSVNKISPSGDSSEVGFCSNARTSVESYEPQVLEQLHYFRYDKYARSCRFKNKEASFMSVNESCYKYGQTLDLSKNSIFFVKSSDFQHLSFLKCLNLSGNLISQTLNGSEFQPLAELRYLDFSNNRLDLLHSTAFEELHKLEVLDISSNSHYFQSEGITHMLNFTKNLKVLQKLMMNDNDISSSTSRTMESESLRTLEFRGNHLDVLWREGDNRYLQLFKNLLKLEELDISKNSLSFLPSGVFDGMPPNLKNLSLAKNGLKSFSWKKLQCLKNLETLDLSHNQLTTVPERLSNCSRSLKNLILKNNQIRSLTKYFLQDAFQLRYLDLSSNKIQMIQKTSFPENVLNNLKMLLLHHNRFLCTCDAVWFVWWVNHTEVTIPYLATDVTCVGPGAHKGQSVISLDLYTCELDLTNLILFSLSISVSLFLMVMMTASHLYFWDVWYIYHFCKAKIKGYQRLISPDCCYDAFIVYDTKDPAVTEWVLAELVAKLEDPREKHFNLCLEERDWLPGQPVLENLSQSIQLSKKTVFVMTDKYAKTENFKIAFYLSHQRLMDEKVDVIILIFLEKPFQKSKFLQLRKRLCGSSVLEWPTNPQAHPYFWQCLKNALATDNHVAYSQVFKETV

TLR7 [3] = molecular target: T2, TLR7 (Mus musculus, UniProt P58681); assay: In vitro cytokine induction (TNF-alpha, IL-6, IL-12; ELISA) in murine macrophages: RAW264.7 cells and BMDM; format: cell-based; conditions: RAW264.7 and BMDM, 18 hours; b281 also in vivo
T2 construct: BMDM were prepared from C57BL/6 and TLR7 deficient mice; endogenous in cells; host or cells: RAW264.7 (ATCC); bone marrow derived macrophages from C57BL/6 mice
T2 sequence (P58681 27-1050): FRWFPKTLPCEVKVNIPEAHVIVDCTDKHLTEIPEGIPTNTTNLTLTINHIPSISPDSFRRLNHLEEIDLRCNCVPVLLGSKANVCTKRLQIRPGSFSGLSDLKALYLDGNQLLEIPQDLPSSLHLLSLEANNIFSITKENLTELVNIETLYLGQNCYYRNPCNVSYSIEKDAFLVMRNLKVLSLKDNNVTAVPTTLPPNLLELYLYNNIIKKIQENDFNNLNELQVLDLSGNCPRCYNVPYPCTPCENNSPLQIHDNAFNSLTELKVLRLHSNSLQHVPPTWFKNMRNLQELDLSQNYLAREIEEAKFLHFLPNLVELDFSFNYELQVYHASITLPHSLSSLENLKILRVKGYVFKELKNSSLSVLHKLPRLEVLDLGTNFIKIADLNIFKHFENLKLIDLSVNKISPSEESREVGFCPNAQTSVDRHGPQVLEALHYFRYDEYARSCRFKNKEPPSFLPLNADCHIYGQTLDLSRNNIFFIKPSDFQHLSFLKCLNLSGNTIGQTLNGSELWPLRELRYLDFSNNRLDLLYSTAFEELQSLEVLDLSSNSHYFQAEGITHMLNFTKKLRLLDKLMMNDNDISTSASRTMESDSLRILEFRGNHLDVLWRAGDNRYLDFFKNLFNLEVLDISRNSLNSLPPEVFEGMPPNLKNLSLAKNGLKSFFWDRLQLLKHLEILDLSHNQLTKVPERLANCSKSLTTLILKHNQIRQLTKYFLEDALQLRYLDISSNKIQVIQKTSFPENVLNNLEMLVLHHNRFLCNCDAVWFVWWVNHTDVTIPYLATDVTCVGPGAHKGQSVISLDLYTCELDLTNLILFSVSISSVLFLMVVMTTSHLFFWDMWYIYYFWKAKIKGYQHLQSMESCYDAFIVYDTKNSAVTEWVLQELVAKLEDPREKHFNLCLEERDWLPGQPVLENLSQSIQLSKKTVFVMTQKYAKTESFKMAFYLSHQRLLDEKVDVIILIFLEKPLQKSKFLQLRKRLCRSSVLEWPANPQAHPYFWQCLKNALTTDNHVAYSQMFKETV
Procedure: In vitro measurements of cytokine induction were performed using the mouse leukemic monocyte macrophage cell line, RAW264.7. […] BMDM were prepared from C57BL/6 and TLR7 deficient mice as described in Wu, C. C et al., “Immunotherapeutic activity of a conjugate of a Toll-like receptor 7 ligand”, Proc. Natl. Acad. Sci. USA, 104:3990 (2007).
In general, RAW264.7 cells or BMDM were incubated with various concentrations of conjugates for 18 hours at 37° C., 5% CO2 and culture supernatants were collected. The levels of cytokines (IL-6, IL-12 or TNF-α in the supernatants were determined by ELISA (BD Biosciences Pharmingen, La Jolla, Calif.) (Cho, H. J et al., “Immunostimulatory DNA-based vaccines induce cytotoxic lymphocyte activity by a T-helper cell-independent mechanism” [see comments], Nat. Biotechnol., 18:509 (2000)), and the results presented in FIGS. 2A-D. Data are mean±SEM of triplicates and are representative of three independent experiments. Minimum detection levels of these cytokines were 15 pg/mL.
TNFα levels were measured (see FIG. 2A) by incubating approximately 1×10^6/mL RAW 264.7 cells with the various conjugates or controls, as described above. IL-6 and IL-12 levels were measured (see FIGS. 2B-D) by incubating 0.5×10^6/mL BMDM with the various conjugates or controls, as described above. […]

SMILES | IL-12 and IL-6 induction in TLR7 deficient BMDM (TLR7 [1]) | course of serum cytokine levels after injection, in words (C57BL/6 mice) | anorexic effects and hypothermia in mice (mice; mouse, in vivo) | minimum dose that induced the anorectic reaction (mice; mucosal administration) [nmoles per mice] | solubility, in words (Solubility) | order of TLR7 conjugate potency (TLR7 [2]) | serum IL-6 induction (C57BL/6 mice) | serum TNFα induction (C57BL/6 mice; any point post injection) | potency of cytokine induction compared to unconjugated TLR7 (SM), in words (TLR7 [3])
COCCOc1nc(N)c2nc(O)n(Cc3ccccc3)c2n1 [SM, 9-benzyl-8-hydroxy-2-(2-methoxyethoxy) adenine, reference compound] | little or no IL-12 and IL-6 | declined rapidly after 2 hours | can induce anorexic effects and hypothermia | 50 | insoluble in aqueous solution |  |  |  | 
COCCOc1nc(N)c2nc(O)n(Cc3ccc(C(=O)NCCOCCOCCOCCOCCOCCOCCOCCOCCOCCOCCn4cc(CCC(=O)O)nn4)cc3)c2n1 [Compound 8, 3-(1-(1-(4-((6-amino-8-hydroxy-2-(2-methoxyethoxy)-9H-purin-9-yl)methyl)phenyl)-1-oxo-5,8,11,14,17,20,23,26,29,32-decaoxa-2-azatetratriacontan-34-yl)-1H-1,2,3-triazol-4-yl)propanoic acid] | little or no IL-12 and IL-6 |  |  |  | solubility improves dramatically | (4b)>(6)>(9)>/=SM>(8) and 4b>6>9>SM=8 | only a low level of IL-6 | no significant induction of TNFα | less potency compared to the unconjugated TLR7 (SM); also recorded: attenuated

— US20130202629A1, “USES OF PHOSPHOLIPID CONJUGATES OF SYNTHETIC TLR7 AGONISTS” (The Regents of the University of California, priority 2010, published 2013)
